Data taken from PubChem BioAssay AID1259407 (Chemical Carcinogenesis Research Information System (CCRIS), 2018).
The source made the active and inactive calls. No rule for the calls is given here.

Tested on: CCRIS mutagenicity, Ames/micronucleus/aberration tests
Assay: CCRIS mutagenicity studies
[1] = Test System: AMES SALMONELLA TYPHIMURIUM, Strain/Indicator: TA97, Metabolic Activation: NONE, Method: PREINCUBATION
[2] = Test System: AMES SALMONELLA TYPHIMURIUM, Strain/Indicator: TA98, Metabolic Activation: NONE, Method: PREINCUBATION
[3] = Test System: AMES SALMONELLA TYPHIMURIUM, Strain/Indicator: TA100, Metabolic Activation: NONE, Method: PREINCUBATION
[4] = Test System: AMES SALMONELLA TYPHIMURIUM, Strain/Indicator: TA1535, Metabolic Activation: NONE, Method: PREINCUBATION

CCCSC(=O)Cl
mutagenic call (Test System: AMES SALMONELLA TYPHIMURIUM, Strain/Indicator: TA97, Metabolic Activation: HAMSTER, LIVER, S-9, AROCLOR 1254 (30%), Method: PREINCUBATION): inactive; negative
mutagenic call [1]: inactive; negative
mutagenic call (Test System: AMES SALMONELLA TYPHIMURIUM, Strain/Indicator: TA97, Metabolic Activation: RAT, LIVER, S-9, AROCLOR 1254 (30%), Method: PREINCUBATION): inactive; negative
mutagenic call (Test System: AMES SALMONELLA TYPHIMURIUM, Strain/Indicator: TA98, Metabolic Activation: HAMSTER, LIVER, S-9, AROCLOR 1254 (30%), Method: PREINCUBATION): inactive; negative
mutagenic call [2]: inactive; negative
mutagenic call (Test System: AMES SALMONELLA TYPHIMURIUM, Strain/Indicator: TA98, Metabolic Activation: RAT, LIVER, S-9, AROCLOR 1254 (30%), Method: PREINCUBATION): inactive; negative
mutagenic call (Test System: AMES SALMONELLA TYPHIMURIUM, Strain/Indicator: TA100, Metabolic Activation: HAMSTER, LIVER, S-9, AROCLOR 1254 (30%), Method: PREINCUBATION): inactive; negative
mutagenic call [3]: inactive; negative
mutagenic call (Test System: AMES SALMONELLA TYPHIMURIUM, Strain/Indicator: TA100, Metabolic Activation: RAT, LIVER, S-9, AROCLOR 1254 (30%), Method: PREINCUBATION): inactive; negative
mutagenic call (Test System: AMES SALMONELLA TYPHIMURIUM, Strain/Indicator: TA1535, Metabolic Activation: HAMSTER, LIVER, S-9, AROCLOR 1254 (5%), Method: PREINCUBATION): inactive; negative
mutagenic call (Test System: AMES SALMONELLA TYPHIMURIUM, Strain/Indicator: TA1535, Metabolic Activation: HAMSTER, LIVER, S-9, AROCLOR 1254 (10%), Method: PREINCUBATION): active; positive
mutagenic call (Test System: AMES SALMONELLA TYPHIMURIUM, Strain/Indicator: TA1535, Metabolic Activation: HAMSTER, LIVER, S-9, AROCLOR 1254 (30%), Method: PREINCUBATION): active; positive
mutagenic call [4]: inactive; negative
mutagenic call (Test System: AMES SALMONELLA TYPHIMURIUM, Strain/Indicator: TA1535, Metabolic Activation: RAT, LIVER, S-9, AROCLOR 1254 (30%), Method: PREINCUBATION): inactive; negative
mutagenic call (Test System: AMES SALMONELLA TYPHIMURIUM, Strain/Indicator: TA1537, Metabolic Activation: HAMSTER, LIVER, S-9, AROCLOR 1254 (30%), Method: PREINCUBATION): inactive; negative
mutagenic call (Test System: AMES SALMONELLA TYPHIMURIUM, Strain/Indicator: TA1537, Metabolic Activation: NONE, Method: PREINCUBATION): inactive; negative
mutagenic call (Test System: AMES SALMONELLA TYPHIMURIUM, Strain/Indicator: TA1537, Metabolic Activation: RAT, LIVER, S-9, AROCLOR 1254 (30%), Method: PREINCUBATION): inactive; negative

C[C@@H]1O[C@@H](OC[C@H]2O[C@@H](Oc3c(-c4ccc(O)c(O)c4)oc4cc(O)cc(O)c4c3=O)[C@H](O)[C@@H](O)[C@@H]2O)[C@H](O)[C@H](O)[C@H]1O
mutagenic call (Test System: Ames Salmonella typhimurium, Strain/Indicator: TA98, Metabolic Activation: None, Method: Standard plate): inactive; negative
mutagenic call (Test System: Ames Salmonella typhimurium, Strain/Indicator: TA98, Metabolic Activation: Rat, Liver, S-9, Aroclor 1254, Method: Standard Plate): inactive; negative

Cc1cc(N)cc([N+](=O)[O-])c1N
mutagenic call (Test System: AMES SALMONELLA TYPHIMURIUM, Strain/Indicator: TA98, Metabolic Activation: RAT, LIVER, S-9, AROCLOR 1254, Method: STANDARD PLATE): active; positive
mutagenic call (Test System: AMES SALMONELLA TYPHIMURIUM, Strain/Indicator: TA1538, Metabolic Activation: RAT, LIVER, S-9, AROCLOR 1254, Method: STANDARD PLATE): active; positive

CCCCCCCCC1OC1CCCCCCCC(=O)OCC(CC)CCCC (configuration not stated)
mutagenic call (Test System: AMES SALMONELLA TYPHIMURIUM, Strain/Indicator: TA97, Metabolic Activation: HAMSTER, LIVER, S-9, AROCLOR 1254 (10% & 30%), Method: PREINCUBATION): inactive; negative
mutagenic call [1]: inactive; negative
mutagenic call (Test System: AMES SALMONELLA TYPHIMURIUM, Strain/Indicator: TA97, Metabolic Activation: RAT, LIVER, S-9, AROCLOR 1254 (10% & 30%), Method: PREINCUBATION): inactive; negative
mutagenic call (Test System: AMES SALMONELLA TYPHIMURIUM, Strain/Indicator: TA98, Metabolic Activation: HAMSTER, LIVER, S-9, AROCLOR 1254 (10% & 30%), Method: PREINCUBATION): inactive; negative
mutagenic call [2]: inactive; negative
mutagenic call (Test System: AMES SALMONELLA TYPHIMURIUM, Strain/Indicator: TA98, Metabolic Activation: RAT, LIVER, S-9, AROCLOR 1254 (10% & 30%), Method: PREINCUBATION): inactive; negative
mutagenic call (Test System: AMES SALMONELLA TYPHIMURIUM, Strain/Indicator: TA100, Metabolic Activation: HAMSTER, LIVER, S-9, AROCLOR 1254 (10% & 30%), Method: PREINCUBATION): inactive; negative
mutagenic call [3]: inactive; negative
mutagenic call (Test System: AMES SALMONELLA TYPHIMURIUM, Strain/Indicator: TA100, Metabolic Activation: RAT, LIVER, S-9, AROCLOR 1254 (10% & 30%), Method: PREINCUBATION): inactive; negative
mutagenic call (Test System: AMES SALMONELLA TYPHIMURIUM, Strain/Indicator: TA1535, Metabolic Activation: HAMSTER, LIVER, S-9, AROCLOR 1254 (10% & 30%), Method: PREINCUBATION): inactive; negative
mutagenic call [4]: inactive; negative
mutagenic call (Test System: AMES SALMONELLA TYPHIMURIUM, Strain/Indicator: TA1535, Metabolic Activation: RAT, LIVER, S-9, AROCLOR 1254 (10% & 30%), Method: PREINCUBATION): inactive; negative

CN(C)c1ccc(N=Nc2ccc(S(=O)(=O)O)cc2)cc1
mutagenic call (Test System: Ames Salmonella typhimurium, Strain/Indicator: TA102, Metabolic Activation: None, Method: Preincubation): inactive; negative
mutagenic call (Test System: Ames Salmonella typhimurium, Strain/Indicator: TA102, Metabolic Activation: Rat, Liver, S-9, Aroclor 1254, Method: Preincubation): active; positive. statistically significant at highest dose.
mutagenic call (Test System: Ames Salmonella typhimurium, Strain/Indicator: TA104, Metabolic Activation: None, Method: Preincubation): inactive; negative
mutagenic call (Test System: Ames Salmonella typhimurium, Strain/Indicator: TA104, Metabolic Activation: Rat, Liver, S-9, Aroclor 1254, Method: Preincubation): active; positive. statistically significant at highest dose.
